# Literature values, collected in patent publication US20190090531A1, “TOBACCO FILLING FOR NON-COMBUSTION-TYPE HEATING SMOKING ARTICLE” (JAPAN TOBACCO INC., priority 2016, published 2019).
# Where two headings read alike, the source gives them in different places.
# [1] = Table 1, in water at normal temperature (25° C.)
Structure (SMILES),Acid dissociation constant pKa1 [1],"Acid dissociation constant pKa1 (Table 2, in water at 25° C.)"
CCCCCCCCCCCCCC(=O)O [Myristic acid],≈5.00,
C/C=C/C=C/C(=O)O [Sorbic acid],4.76,
CCCCCCCCCCCCCCCCCCCCCCCC(=O)O [Lignoceric acid],≈5.00,≈5.00
O=C1O[C@H]([C@H](O)CO)C(O)=C1O [Isoascorbic acid],4.13,4.13
CC/C=C\C/C=C\C/C=C\CCCCCCCC(=O)O [Linolenic acid],≈5.00,
CCCCCCCCCCCC(=O)O [Lauric acid],5.20,
CCCCCCCCCC(=O)O [Decanoic acid],4.90,
CC(=O)CCC(=O)O [Levulinic acid],4.44,
CC(=O)C(=O)O [Pyruvic acid],2.50,
CCCCCCCCCCCCCCCCCCCCC(=O)O [Heneicosanoic acid],≈5.00,
CCCCCCCCCCCCCCCC(=O)O [Palmitic acid],≈5.00,
CCCCCCCCCCCCCCCCCCC(=O)O [Nonadecanoic acid],≈5.00,≈5.00
CCCCCCCCCCCCCCCCCCCCCCCCCCCC(=O)O [Octacosanoic acid],≈5.00,
CCCCCCCCCCCCCCCCCC(=O)O [Stearic acid],≈5.00,
